The values below come from paper PMC2673089 (Journal of pharmaceutical sciences, 2008).

Broadly, the IC50 is the concentration that inhibits the measured activity by half.

In data set [1] the test system is Caco-2 monolayers. Nature of the data set: Bidirectional transport and verapamil inhibition across Caco-2 monolayers. The format is in vitro ADME. The conditions noted are these: 0.1 mM, absence of verapamil, mean ± SD (n = 3).
Data set [2] has as its system MDCK-MDR1 monolayers. The data set is described as follows: Bidirectional transport and verapamil inhibition across MDCK-MDR1 monolayers. The following applies: MDCK-MDR1. The format is in vitro ADME.
The test system of data set [3] is extracellular levels of DA in the nucleus accumbens (NAc). The conditions noted are these: cited from earlier work.
Data set [4] relates to MDCK-MDR1 monolayers. The following applies: MDCK-MDR1 monolayer characterization; cited from earlier work.
Data set [5] has as its system Caco-2 monolayers. The following applies: Caco-2 monolayer characterization; cited from earlier work.
For another data set, the system named is DA uptake. The conditions noted are these: read-out: DA Uptake IC50; mean ± SEM; cited from earlier work.
[6] abbreviates: 0.1 mM, absence of verapamil, mean ± SD (n = 3).

Each structure is given as a SMILES string. Marks after values point to notes of the source that are not given here. Bounds are passed on as bounds.

On to `C[N+]1(C)C2CCC1CC(OC(c1ccc(F)cc1)c1ccc(F)cc1)C2` (stereo not drawn) [JHW 025, N-(dimethyl)-3α-[(bis-4′-fluorophenyl)methoxy]tropane, reference compound], for which the “Papp A-B” value in the data set on Caco-2 monolayers [1] was <0.34 ^a × 10^−6 cm/s; in the data set on MDCK-MDR1 monolayers [2] (setting [6]), 5.00 ± 0.31 × 10^−6 cm/s. The “Papp B-A” value is reported as 1.8 ± 0.25 × 10^−6 cm/s with Caco-2 monolayers [1] and 7.39 ± 1.17 × 10^−6 cm/s with MDCK-MDR1 monolayers [2] (setting [6]). In the data set on MDCK-MDR1 monolayers [2] (0.1 mM, Papp(B-A)/Papp(A-B)), the “Efflux Ratio” value was 1.5. For the same molecule, the “Enhancement ratio of A-B transport by verapamil” value in the data set with MDCK-MDR1 monolayers [2] (verapamil 200 μM) was 1.2.

For `COC(=O)[C@H]1[C@@H](OC(=O)c2ccccc2)C[C@@H]2CC[C@H]1N2C` [cocaine], the DA increase result in data set [3] (3 mg/kg i.v., similar microdialysis technique, ref Baumann et al.[41]) is “six-fold”. Also, the DA elevation in data set [3] (5 mg/kg i.v., identical stereotaxic coordinates) was 10 fold.

On to `CC(C)NCC(O)COc1cccc2ccccc12` (centres unmarked) [propranolol], for which the “Papp of marker compounds” value with MDCK-MDR1 monolayers [4] was 24.33 ×10⁻⁶ cm/s; in the data set with Caco-2 monolayers [5] it was 13.34 ×10⁻⁶ cm/s.

For `CN1[C@@H]2CC[C@H]1C[C@@H](OC(c1ccccc1)c1ccccc1)C2` [BZT, benztropine, reference compound], the IC50 with DA uptake is 403 ± 115 nM.
